According to patent US20230022796A1 (Merck Patent GmbH, priority 2019, published 2023):

What was measured:
[1] = system: CHO cell line producing mAb1; experiment: Glycosylation profile (UPLC-MS of released glycans) of mAb1 from fed-batch; format: cell-based, Chinese hamster; settings: for reduction of the fucosylation compared to the control: mAb1, same concentration of both additives; for fucosylation level / incorporation of the fucose-analogue: mean of day 7, 10 and 12
Experimental: (§1) Glycosylation patterns were analyzed by ultra-performance liquid chromatography coupled to a mass spectrometer (UPLC-MS). The purified antibody was denaturated and the glycans were released from the antibody by digestion with peptide N-glycosidase F (PNGase F) followed by labeling the glycans with the GlycoWorks™ RapiFluor-MS™ N-Glycan Kit according to the manufacturer protocol. For the analysis, an UPLC glycan column (2.1×150 mm) that separated the glycans according to their […] was used. The chromatography was performed at 45° C. using 50 mM ammonium formate (A), pH 4.4 solution and an acetonitrile (B) gradient. In detail, at the beginning the ratio of A:B was 20:80 (0 min) and changed to 27:73 at 3 min and 37:63 at 35 min at a flow rate of 0.5 ml/min. From 36.5 min to 39.5 min only A was used as mobile phase and the flow rate was reduced to 0.2 ml/min. Subsequently, the ratio was changed to 20% A:80% B and the flowrate was increased to 0.5 ml/min at 43.1 min until the end of the process at 55 min. The detection was performed by a fluorescence detector with an excitation wavelength of 265 nm and an emission wavelength of 425 nm. The identification of the glycan structures was performed by MS using positive electro spray ionization (ESI), which was calibrated every 30 s with a standard.
(§2) Four different clones of Chinese hamster ovary (CHO) cells expressing three different monoclonal antibodies (mAb) and a fusion protein were tested. Cells were cultivated in spin tubes between 14 and 20 days at 37° C., 5% CO2, and 80% humidity. As starting cell density, 3×10^5 cells/mL in 30 mL Cellvento®4CHO media (pH 7.0±0.1) was used for clone 1 and 2 producing mAb1 and mAb2, respectively (Cellvento® Platform). Cells were cultivated at an agitation of 320 rpm and were fed on day 3, 5, 10, 12 and 14 with 3% volume of Cellvento® 4Feed (v/v) and on day 7 with 6% (v/v) of the feed. Clone 3 and 4 producing mAb3 and a fusion protein were inoculated at the same cell density in 30 mL Ex-Cell® Advanced Media (pH 7.2±0.1) while agitation was set to 230 rpm (Ex-Cell® Platform). Clones 3 and 4 were fed with […] Advanced Feed (v/v) on day 3, 5, 7, 10, 12, 14 and 17. […] The pH of all Cellvento® feeds was adjusted to 7.0±0.1 and Ex-Cell® Feeds were adjusted to 8.5±0.1. The glucose level was maintained above 4 g/L by adding a specific amount of a 400 g/L glucose stock solution on demand to up to 6 g/L during the week and up to 13 g/L over the weekend. Glucose and titer were detected in the supernatant with the bioprocess analyzer CEDEX Bio HT (Roche, Mannheim, Germany).
(§3) To investigate the glycosylation profile during the fed-batch experiment samples were centrifugated and antibodies and Fc-fusion proteins were purified from the cell culture supernatant using protein A PhyTips® (PhyNexus Inc, San Jose, Calif.). Glycosylation patterns were analyzed as described by ultra-performance liquid chromatography coupled to a mass spectrometer (UPLC-MS) using the GlycoWorks™ RapiFluor-MS™ N-Glycan Kit.
(§4) Glycosylation profile on day 12 was visualized since harvest of recombinant produced proteins on day 12 is common. Quantification of the glycans was obtained using the relative peak area of the fluorescence signal. Almost all peaks were assigned to glycan structures according to their mass. Unknown glycan structures and signals without mass detection were summarized as unknown species (not shown). Four different clones of Chinese hamster ovary (CHO) cells expressing three different monoclonal antibodies (mAb) and a fusion protein were tested. […] The known positive control achieved a […] level on day 12 by increasing the afucosylation to 78%. The same amount of afucosylation compared to the known fucose-analogue acetylated 2F-Fucose was only achieved by clone 3 expressing mAb3 leading to about […] on day 12 (FIG. 8 C). […]

[2] = system: CHO cell line producing mAb2; experiment: Glycosylation profile (UPLC-MS of released glycans) of mAb2 from fed-batch; format: cell-based, Chinese hamster; settings: mAb2, 400 μM additive, day 12
Experimental: as §1, §2, §3
Glycosylation profile on day 12 was visualized since harvest of recombinant produced proteins on day 12 is common. Quantification of the glycans was obtained using the relative peak area of the fluorescence signal. Almost all peaks were assigned to glycan structures according to their mass. Unknown glycan structures and signals without mass detection were summarized as unknown species (not shown). […]

[3] = system: CHO cell line producing mAb3; experiment: Glycosylation profile (UPLC-MS of released glycans) of mAb3 from fed-batch; format: cell-based, Chinese hamster; settings: mAb3, 400 μM additive
Experimental: as §1, §2, §3, §4

FcγRIIIa V176 = experiment: Surface plasmon resonance (Biacore) binding of mAb3 from treated cultures to FcγRIIIa; settings: for Fold change (affinity vs control): mAb3, 400 μM additive; for Kd: mAb3 from culture fed with 400 μM additive
Experimental: Binding of samples after 5-ThioFuc treatment was investigated by surface plasmon resonance technology using a Biacore T200 system (GE Healthcare, Uppsala, Sweden). The analysis temperature was set to 25° C. and sample compartment temperature to 15° C. […] The anti-His antibody was further used to capture His-tagged FcγRIIIa V176 ([…]) from AcroBiosystems (Newark, Del., USA).
Binding was recorded continuously, while unspecific binding and injection artefacts were subtracted automatically. Single-cycle kinetics were used with a dissociation time of 600 s at a flow rate of 30 μL/min. Data collection rate was performed at 10 Hz. Following each experiment, both flow cells were regenerated for 30 s with 10 mM glycine-HCl pH 1.5 according to kit instructions. Data of three technical and two biological replicates were fitted with a 1:1 binding model. The global dissociation constant KD was determined from the ratio of the kinetic rate constants for dissociation (kd) and association (ka) values. Data are presented in Table 1 as fold change compared to the control.

[4] = system: CHO cell line producing a fusion protein; experiment: Glycosylation profile (UPLC-MS of released glycans) of fusion protein from fed-batch; format: cell-based, Chinese hamster; settings: 400 μM additive, day 12
Experimental: as §1, §2, §3
Glycosylation profile on day 12 was visualized since harvest of recombinant produced proteins on day 12 is common. Quantification of the glycans was obtained using the relative peak area of the fluorescence signal. Almost all peaks were assigned to glycan structures according to their mass. Unknown glycan structures and signals without mass detection were summarized as unknown species (not shown). Four different clones of Chinese hamster ovary (CHO) cells expressing three different monoclonal antibodies (mAb) and a fusion protein were tested. […] The known positive control achieved a 14% fucosylation level on day 12 by increasing the afucosylation to 78%. The same amount of afucosylation compared to the known fucose-analogue acetylated 2F-Fucose was only achieved by clone 3 expressing mAb3 leading to about 34% afucosylation on day 12 (FIG. 8 C).

[5] = system: CHO cell line producing mAb3; experiment: Fed-batch cell performance (viable cell density), clone 3 producing mAb3; format: cell-based, Chinese hamster; settings: mAb3, feed with 400 μM additive
Experimental: Four different clones of Chinese hamster ovary (CHO) cells expressing three different monoclonal antibodies (mAb) and a fusion protein were tested. Cells were cultivated in spin tubes between 14 and 20 days at 37° C., 5% CO2, and 80% humidity. As starting cell density, 3×10^5 cells/mL in 30 mL Cellvento®4CHO media (pH 7.0±0.1) was used for clone 1 and 2 producing mAb1 and mAb2, respectively (Cellvento® Platform). Cells were cultivated at an agitation rate of 320 rpm and were fed on day 3, 5, 10, 12 and 14 with 3% volume of Cellvento® 4Feed (v/v) and on day 7 with 6% (v/v) of the feed. Clone 3 and 4 producing mAb3 and a fusion protein were inoculated at the same cell density in 30 mL Ex-Cell® Advanced Media (pH 7.2±0.1) while agitation was set to 230 rpm. Clones 3 and 4 were fed with 5% Ex-Cell® Advanced Feed (v/v) on day 3, 5, 7, 10, 12, 14 and 17. […]
The glucose level was maintained above 4 g/L by adding a specific amount of a 400 g/L glucose stock solution on demand to up to 6 g/L during the week and up to 13 g/L over the weekend. Glucose and titer were detected in the supernatant with the bioprocess analyzer CEDEX Bio HT (Roche, Mannheim, Germany) based on spectrophotometric and turbidometric methods. The viable cell density (VCD) and viability were evaluated with a Vi-CELL™ XR 2.04 cell counter (Beckman Coulter, Fullerton, Calif., USA). […]

[6] = day 12, listed as acetylated 2F-Fucose

In the case of CC(=O)OC1O[C@@H](C)[C@@H](OC(C)=O)[C@@H](OC(C)=O)[C@@H]1F (stereo partly shown) [2F-Peracetylfucose, reference compound], the afucosylation ([1]; mAb1, 400 μM additive, day 12) is reported as 60%, the core-fucosylated glycans ([1]; mAb1, 400 μM additive, day 12) is reported as 36% and the “reduction of the fucosylation compared to the control” value (“reduction of the fucosylation” for short) ([1]; day 7) is reported as 11%. The “reduction of the fucosylation” value ([1]; day 10) was 50%, the “reduction of the fucosylation” value ([1]; day 12) was 58% and the afucosylation [2] was 78%. For the same molecule, the core-fucosylation [2] was 14%, the “% Afucosylated” value ([3]; day 5) was 14.9% and the “% fucose analogue (incorporated)” value ([3]; day 5) was 0.3%. For the same molecule, the “% Fucosylated” value ([3]; day 5, listed as 2F-PerAcFuc) was 83.9%, the “% Fucosylated” value ([3]; day 5, listed as acetylated 2F-Fucose) was “about 84%” and the fucosylation level ([3]; day 7) was “about 78%”. For the same molecule, the fucosylation level ([3]; day 10) was about 72%, the “% fucose analogue (incorporated)” value ([3]; day 12) was 0.2% and the “% Afucosylated” value ([3]; day 12, listed as 2F-PerAcFuc) was 34.2%. For the same molecule, the “% Fucosylated” value ([3]; day 12, listed as 2F-PerAcFuc) was 64.8%, the “% Afucosylated” value [3, 6] was “about 34%” and the “% Fucosylated” value [3, 6] was 65%. The “% Afucosylated” value ([3]; day 14) was 40.9%, the “% fucose analogue (incorporated)” value ([3]; day 14) was 0.12% and the “% Fucosylated” value ([3]; day 14, listed as 2F-PerAcFuc) was 57.4%. The “% Fucosylated” value ([3]; day 14, listed as acetylated 2F-Fucose) was about 57%, the “Fold change (affinity vs control)” value (FcγRIIIa V176; day 5) was 1.3 fold and the “Fold change (affinity vs control)” value (FcγRIIIa V176; day 12) was 3.6 fold. For the same molecule, the “Fold change (affinity vs control)” value (FcγRIIIa V176; day 14) was 4.4 fold, the Kd (FcγRIIIa V176; day 5) was 78 nM and the Kd (FcγRIIIa V176; day 12) was 34 nM. For the same molecule, the Kd (FcγRIIIa V176; day 14) was 23 nM, the afucosylation [4] was 82% and the “incorporation of fucose analogue (% of the glycans)” value [4] was “without detectable incorporation”.

With acetylated 5-Thio-L-Fucose the fucosylation level ([1]; mAb1, 200 μM additive) was 46%, the “incorporation of the fucose-analogue” value ([1]; mAb1, 200 μM additive) was 50% and the core-fucosylated glycans ([1]; mAb1, 400 μM additive, day 12) was “about 26%”. For the same molecule, the “incorporation of fucose analogue (% of the glycans)” value ([1]; mAb1, 400 μM additive, day 12) was “about 70%”, the fucosylation level ([1]; mAb1, 400 μM additive) was 16% and the “incorporation of the fucose-analogue” value ([1]; mAb1, 400 μM additive) was 81%. The fucosylation level ([1]; mAb1, 800 μM additive) was 9%, the “incorporation of the fucose-analogue” value ([1]; mAb1, 800 μM additive) was 87% and the “reduced VCD (area under the curve until day 17, compared to the control)” value [5] was about 24%. For the same molecule, the core-fucosylation [2] was 8%, the afucosylation [4] was 52% and the “incorporation of fucose analogue (% of the glycans)” value [4] was 39%. The “reduction of core-fucosylation compared to the control” value [4] was “about 63%”.
